This is an account of results in patent US12313613B2, “Method of testing crystallinity in amorphous pharmaceutical compositions” (ColVisTec AG, priority 2019, dated 2025).

Assay type in all cases: physicochemical
Series [1] in a line: Particle size distribution of the components (Mastersizer laser diffraction). How it is done:
In some cases, the particle size of the dispersion or solution is measured prior to being subjected to UV/vis spectroscopy. Known methods of sizing the dispersion or solution include sieve analysis, direct imaging and laser diffraction. In the present disclosure, a Mastersizer (Malvern Instruments) laser diffraction device was used.

Series [2] is described as follows: In-line UV/vis transmission crystallinity detection of piroxicam in Kollidon VA64 (solubility maximum, twin-screw extruder). To be noted: in Kollidon VA64, hot melt extrusion, amorphous, homogeneous and transparent below this loading.
From the text: A twin-screw extruder was used to assess the solubility maximum for a mixture of the non-steroidal anti-inflammatory drug (NSAID) piroxicam (PRX) and the carrier polymer Kollidon VA64. The mixture was continuously analysed while traversing the extruder screw using a system of in-line UV/vis spectrometers and the input of the PRX was adjusted until crystallinity was first detected.
UV/vis transmission spectra were obtained for 15, 18, 20, 23 and 25 wt % PRX samples.
Series [3] is described as follows: Off-line XRD crystallinity detection of PRX / Kollidon VA64 mixtures (Bruker instrument). Particulars: in Kollidon VA64, milled samples, no crystallinity detected at 25 wt %. As for the experimental part: The samples were analysed by a UV/vis spectrometer in transmission mode (FIG. 1) and an XRD spectrum of the same samples was also obtained for comparison and verification (FIG. 2). The XRD samples required milling and analysis offline whereas UV/vis has the advantages that it can be performed rapidly in-line without milling.
XRD spectra were obtained on a Bruker instrument for each of pure solid PRX, Kollidon VA64, and 20, 25 and 30 wt % PRX mixtures separately. […] Only at 30 wt % PRX loading, well above the maximum solubility when there is substantially higher crystallinity, does the XRD spectra first show peaks that correlate with the pure XRD spectra of PRX.

Molecules are shown by their SMILES.

In series [1], `Cc1cc(C#N)cc(C)c1Oc1nc(Nc2ccc(C#N)cc2)nc(N)c1Br` [crystalline etravirine (ETR), 4-[6-amino-5-bromo-2-(4-cyanoanilino)pyrimidin-4-yl]oxy-3,5-dimethylbenzonitrile] returned a D10 of 8 μm, a D50 of 26 μm and a D90 of 87 μm.

Regarding `CN1C(C(=O)Nc2ccccn2)=C(O)c2ccccc2S1(=O)=O` [PRX, 4-hydroxy-2-methyl-1,1-dioxo-N-pyridin-2-yl-1$1^6,2-benzothiazine-3-carboxamide], the “PRX loading at which the first microcrystalline domains are observed (solubility maximum in carrier)” value in series [2] is on record as 25 wt %. In series [3], the “PRX loading at which XRD spectra first show peaks of crystalline PRX” value is 30 wt %.
